Laboratory results taken from patent publication US8552161B2, “Saponin compounds, methods of preparation thereof, use thereof and pharmaceutical compositions” (Uniwersytet W Bialymstoku, priority 2009, dated 2013).

How the values were obtained:
[1] = tested on: T-lymphoblastic leukemia cell line CEM; assay: Calcein AM cytotoxicity assay, CEM; format: cell-based; conditions: 72 h; for IC50: Calcein AM assay, means ± SD, three independent experiments in triplicate; for dose-dependent antiproliferative activity, number of viable cells (FIG. 1): CEM, increasing concentrations, Calcein AM
Protocol: (§1) Stock solutions (10 mmol/l) of the tested compounds were prepared by dissolving relevant quantity of the substance in DMSO. […] Calcein AM was obtained from Molecular Probes (Invitrogen Corporation, CA, USA).
(§2) All cell lines were cultured in DMEM medium (Sigma, Mo., USA). Medium was supplemented with 10% heat-inactivated fetal bovine serum, 2 mmol/l L-glutamine and 1% penicillin-streptomycin. The cell lines were maintained under standard cell culture conditions at 37° C. and 5% CO2 in a humid environment. Cells were subcultured twice or three times a week using the standard trypsinization procedure.
(§3) All cell lines were cultured in DMEM medium (Sigma, Mo., USA) supplemented with 10% fetal calf serum, 2 mM glutamine, 100 U/ml penicillin and 100 μg/ml streptomycin, at 37° C. in a fully humidified atmosphere containing 5% CO2. Suspensions of these lines (ca. 1.0×10^5 cells/ml) were placed in 96-well microtitre plates and after 3 h of stabilization the tested compounds were added in serially diluted concentrations. Saponins were dissolved in dimethylsulfoxide (DMSO) before addition to cultures. Control cultures were treated with DMSO alone. The final concentration of DMSO in the reaction mixtures never exceeded 0.6%. Four-fold dilutions of the intended test concentration were added at time zero in 20 μl aliquots to the microtitre plate wells. Usually, each test compound was evaluated at six 4-fold dilutions and in routine testing; the highest well concentration was 50 μM, although this varied in a few cases, depending on the test compound. After 72 h of culture, the cells were incubated with Calcein AM solution (Molecular Probes) for 1 h. The fluorescence of viable cells was quantified using a Fluoroscan Ascent instrument (Microsystems).

[2] = tested on: breast carcinoma cell line MCF7; assay: Calcein AM cytotoxicity assay, MCF7; format: cell-based, human; conditions: for IC50: Calcein AM assay, 72 h, means ± SD, three independent experiments in triplicate; for dose-dependent antiproliferative activity, number of viable cells (FIG. 1): MCF7, 72 h, increasing concentrations, Calcein AM
Protocol: as §1, §2, §3

[3] = tested on: malignant melanoma cell line G-361; assay: Calcein AM cytotoxicity assay, G-361; format: cell-based, human; conditions: 72 h, means ± SD, three independent experiments in triplicate
Protocol: as §1, §2, §3

[4] = tested on: cervical carcinoma cell line HeLa; assay: Calcein AM cytotoxicity assay, HeLa; format: cell-based; conditions: 72 h, means ± SD, three independent experiments in triplicate
Protocol: as §1, §2, §3

[5] = tested on: osteosarcoma cell line HOS; assay: Calcein AM cytotoxicity assay, HOS; format: cell-based, human; conditions: 72 h, means ± SD, three independent experiments in triplicate
Protocol: (§4) Stock solutions (10 mmol/l) of the tested compounds were prepared by dissolving relevant quantity of the substance in DMSO. Dulbecco's modified Eagle's medium (DMEM, RPMI 1640, F-12 medium), fetal bovine serum (FBS), L-glutamine, penicillin, streptomycin were purchased from Sigma (MO, USA). Calcein AM was obtained from Molecular Probes (Invitrogen Corporation, CA, USA).
(§5) The screening cell lines (T-lymphoblastic leukaemia cell line CEM, breast carcinoma cell line MCF-7, cervical carcinoma cell line HeLa, human glioblastoma cell line T98, human malignant melanoma G-361, human osteogenic sarcoma cell line HOS, carcinomic human alveolar basal epithelial cells A549, human colon carcinoma cells HCT 116 and human fibroblasts BJ) were obtained from the American Type Culture Collection (Manassas, Va., USA). All cell lines were cultured in DMEM medium (Sigma, Mo., USA). Medium was supplemented with 10% heat-inactivated fetal bovine serum, 2 mmol/l L-glutamine and 1% penicillin-streptomycin. The cell lines were maintained under standard cell culture conditions at 37° C. and 5% CO2 in a humid environment. Cells were subcultured twice or three times a week using the standard trypsinization procedure.
(§6) Cytotoxic activities of the novel compounds, obtained according to this invention, were tested in vitro against following cancer cell lines: T-lymphoblastic leukemia cell line CEM; breast carcinoma cell line MCF7, lung carcinoma cell line A549, cervical carcinoma cell line HeLa, malignant melanoma cell line G-361, osteosarcoma cell line HOS, human glioblastoma cell line T98, human colon carcinoma cells HCT 116 and normal human fibroblasts BJ. […] Usually, each test compound was evaluated at six 4-fold dilutions and in routine testing; the highest well concentration was 50 μM, although this varied in a few cases, depending on the test compound. […] The fluorescence of viable cells was quantified using a Fluoroscan Ascent instrument (Microsystems). […]

[6] = tested on: lung carcinoma cell line A549; assay: Calcein AM cytotoxicity assay, A549; format: cell-based, human; conditions: 72 h, means ± SD, three independent experiments in triplicate, read-out: IC50, A 549
Protocol: as §1, §2, §3

[7] = tested on: human glioblastoma cell line T98; assay: Calcein AM cytotoxicity assay, T98; format: cell-based; conditions: 72 h, means ± SD, three independent experiments in triplicate
Protocol: as §4, §5
as §3, with “Cytotoxic activities of the novel compounds, obtained according to this invention, were tested in vitro against following cancer cell lines: T-lymphoblastic leukemia cell line CEM; breast carcinoma cell line MCF7, lung carcinoma cell line A549, cervical carcinoma cell line HeLa, malignant melanoma cell line G-361, osteosarcoma cell line HOS, human glioblastoma cell line T98, human colon carcinoma cells HCT 116 and normal human fibroblasts BJ. All” for “All”, “(Microsystems). The percentage of surviving cells in each well was calculated from the equation […]=(ODdrug exposed well/mean ODcontrol wells)×100%. The IC50 value, the drug concentration lethal to 50% of the tumour cells, was calculated from the obtained dose-response curves.” for “(Microsystems).”

[8] = tested on: human colon carcinoma cells HCT 116; assay: Calcein AM cytotoxicity assay, HCT 116; format: cell-based; conditions: 72 h, means ± SD, three independent experiments in triplicate, read-out: IC50, HCT116
Protocol: as §4, §5, §6

[9] = tested on: normal human fibroblasts BJ; assay: Calcein AM cytotoxicity assay, normal fibroblasts BJ; format: cell-based; conditions: 72 h, means ± SD, three independent experiments in triplicate
Protocol: as §1, §2, §3

[10] = tested on: leukemia HL-60 cancer cells; conditions: cited from earlier work
P388 = conditions: mice bearing P388, single administration of 0.01 mg/kg; cited from earlier work
[11] = tested on: human leukemia and pancreatic cancer cells; conditions: cited from earlier work

| SMILES | IC50 [1] [nM] | IC50 [2] [nM] | IC50 [3] [nM] | IC50 [4] [nM] | IC50 [5] [nM] | IC50 [6] [nM] | IC50 [7] [nM] | IC50 [8] [nM] | IC50 [9] [nM] | cytotoxicity relative to clinically applied anticancer agents (mitomycin C, adriamycin, cisplatin, camptothecin, taxol) ([10]; HL-60) | cytotoxic activity, HL-60 ([10]; NCI tests) | prolongation of life span (P388) [%] | effect on mitochondria [11] | dose-dependent antiproliferative activity, number of viable cells (FIG. 1) [1] | dose-dependent antiproliferative activity, number of viable cells (FIG. 1) [2] |
| --- | --- | --- | --- | --- | --- | --- | --- | --- | --- | --- | --- | --- | --- | --- | --- |
| COc1ccc(C(=O)O[C@H]2[C@H](O[C@@H]3[C@@H](OC(C)=O)[C@H](O[C@H]4C[C@H]5[C@@H]6CC=C7C[C@@H](O)CC[C@]7(C)[C@H]6CC[C@]5(C)[C@@]4(O)[C@H](C)C(=O)CCC(C)C)OC[C@@H]3O)OC[C@@H](O)[C@@H]2O)cc1 [OSW-1, reference compound] | 3 ± 0.03 | 54.4 ± 0.2 | 1000 ± 100 | 3.4 ± 0.3 | 8200 ± 400 | 27 ± 3 | 70 ± 6 | 8400 ± 500 | 0.2 | 10-100 times | nanomolar concentrations | 59 | damaged the mitochondrial membrane and cristae | – | – |
| CCCCCCCCCCCCCC(=O)OC[C@@H](C)[C@@]1(O)[C@@H](O[C@@H]2OC[C@H](O)[C@H](O[C@@H]3OC[C@@H](O)[C@H](O)[C@H]3OC(=O)c3ccc(OC)cc3)[C@H]2OC(C)=O)C[C@H]2[C@@H]3CC=C4C[C@@H](O)CC[C@]4(C)[C@H]3CC[C@@]21C [Compound 9, (20R)-21-O-tetradecanoyl-20-methylpregn-5-ene-3β,16β,17α,21-tetraol 16-O-{2-O-(4-methoxybenzoyl)β-D-xylopyranosyl-(1-43)-2′-O-acetyl-α-L-arabinopyranoside}] | 16 ± 5 | 48 ± 22 | 30 ± 10 | 67 ± 2 | 2700 ± 600 | 720 ± 70 | 28 ± 1 | 2800 ± 400 | 83 ± 5 | – | – | – | – | significantly reduce the number of living cells | significantly reduce the number of living cells |
| CC(C)CCC(=O)[C@@H](C)[C@@]1(O)[C@@H](O)C[C@H]2[C@@H]3CC=C4C[C@@H](O)CC[C@]4(C)[C@H]3CC[C@@]21C [OSW-1 aglycone, reference compound] | > 50000 | > 50000 | > 50000 | > 50000 | > 50000 | > 50000 | > 50000 | > 50000 | > 50000 | – | – | – | – | – | – |
| CCCCCCCCCCCCCCCCCC(=O)OC[C@@H](C)[C@@]1(O)[C@@H](O[C@@H]2OC[C@H](O)[C@H](O[C@@H]3OC[C@@H](O)[C@H](O)[C@H]3OC(=O)c3ccc(OC)cc3)[C@H]2OC(C)=O)C[C@H]2[C@@H]3CC=C4C[C@@H](O)CC[C@]4(C)[C@H]3CC[C@@]21C [Compound 10, (20R)-21-O-Octadecanoyl-20-methylpregn-5-ene-3β,16β,17α,21-tetraol 16-O-{2-O-(4-methoxybenzoyl)-β-D-xylopyranosyl-(1→3)-2′-O-acetyl-α-L-arabinopyranoside}] | 58 ± 1 | 195 ± 21 | 300 ± 100 | 435 ± 64 | – | 550 ± 180 | 210 ± 50 | – | 80 ± 4 | – | – | – | – | significantly reduce the number of living cells | significantly reduce the number of living cells |
